Results from patent US11648239B2, “Azophenols as ERG oncogene inhibitors” (The Henry M. Jackson Foundation for the Advancement of …, priority 2015, dated 2023).
pIC50: −log10 of the molar value.

How the values were obtained:
VCaP cells = assay: VCaP cell growth inhibition; format: cell-based; settings: for pIC50: VCaP, metastatic prostate cancer, TMPRSS2-ERG fusion, N/D = assay performed, inhibition not detected at the tested levels
Experimental: Approximately 48 hours following plating of cells, the appropriate test compound is added to each well of the tissue culture dish at a predetermined concentration. The medium was replenished every 24 hours with fresh growth medium containing the same concentration of the same test compound for indicated period of the cell growth inhibition assay. Percent cell growth inhibition was calculated using a hemocytometer for estimating cell density in each of the test wells of the tissue culture dish and trypan blue dye exclusion microscopy and photography to estimate the fraction of viable cells in each test well.
To investigate whether the azophenol compounds selectively arrested the growth of ERG positive cancer cells (VCaP), VCaP cells were cultured to achieve cells in logarithmic growth and these cells were then plated in 6 well tissue culture dishes in duplicates at a cell density of 0.2×10^6 cells per well. The plated cells were exposed to 0, 0.2, 0.4, 0.6, 0.8 and 1 μM concentrations of each compound for a period of 8 days. At the end of time period, cells were recovered from the test plate, washed, trypsinized and the cell density of viable cells were determined with trypan blue dye staining method and automated cell counter Bio-Rad TC10. The IC50 of cell growth inhibition of each compound was determined by trypsinizing the cells at the end of the experiment and counting the cells by using the automated cell counter (Bio-Rad TC10 automated cell counter). The average cell numbers of each concentration were used to calculate the IC50 of each compound with the GraphPad Prism 6 software.

ERG protein [1] = biological target: T1, ERG protein (Homo sapiens, UniProt P11308); assay: Inhibition of ERG protein in VCaP cells (Western blot); format: cell-based; settings: VCaP, metastatic prostate cancer, TMPRSS2-ERG fusion; N/D = assay performed, inhibition not detected at the tested levels
T1 construct: host or cells: VCaP
T1 sequence (P11308 33-479 limits assumed): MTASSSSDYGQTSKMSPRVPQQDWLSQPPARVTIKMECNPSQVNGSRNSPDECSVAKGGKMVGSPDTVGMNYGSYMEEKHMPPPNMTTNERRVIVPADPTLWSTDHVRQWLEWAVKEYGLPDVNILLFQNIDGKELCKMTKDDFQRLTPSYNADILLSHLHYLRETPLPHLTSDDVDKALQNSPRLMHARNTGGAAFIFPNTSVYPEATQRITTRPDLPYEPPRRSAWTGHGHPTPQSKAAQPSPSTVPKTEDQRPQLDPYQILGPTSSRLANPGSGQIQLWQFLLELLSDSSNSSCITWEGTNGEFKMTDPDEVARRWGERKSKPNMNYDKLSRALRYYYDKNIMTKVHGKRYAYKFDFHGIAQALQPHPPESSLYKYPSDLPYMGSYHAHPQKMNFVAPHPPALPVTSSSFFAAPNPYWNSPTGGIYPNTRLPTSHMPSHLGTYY
Experimental: The TMPRSS2-ERG fusion positive prostate cancer cell line, VCaP (ATCC), was used to identify the test compound inhibitors of ERG expression. Cells were grown in medium using conditions prescribed by the vendor. VCaP cells in logarithmic growth were seeded in a tissue culture dish at a cell density of 2×10^6 cells per plate. Following 48 hours incubation at 37° C., cells were exposed for a period of 48 hours with 0, 0.05, 0.25 and 0.5 μM concentrations of each test azophenol compound. The inhibition of ERG expression was evaluated by an In-cell Western blot assay (LI-COR Biosciences, Lincoln, Nebr.) using the ERG specific CPDR ERG-MAb as further described below.
Inhibition of ERG protein expression by the test compounds were determined by Western blot analysis. The ERG specific monoclonal antibody CPDR ERG-MAb was used as the primary antibody. In brief, Western blot was performed by running a fixed amount of total protein extracted from cell lysates of the treated cells using (4-12% Bis-Tris) gel by electrophoresis, followed by transfer to membrane and incubation with primary antibody and continued with HRP-conjugated secondary antibody. Cultured cells were treated at specific dosages with each of the tested ERG inhibitors. Following incubation of the treated cells for an indicated time period, cells were lysed using Mammalian Protein Extraction Reagent (M-PER; Pierce, Rockford, Ill.) containing a protease inhibitor cocktail and phosphatase inhibitor cocktails I & III (Sigma, St Louis, Mo.). Cell lysates containing 50 μg of total protein were electrophoresed through 4-12% Bis-Tris Gel (Invitrogen, Carlsbad, Calif.) and the cellular proteins were transferred to PVDF membrane (Invitrogen, Carlsbad, Calif.). Membranes were incubated at 4° C. for 12 hours with primary antibodies for AR, PSA, GAPDH, α-Tubulin, apoptosis markers and cell cycle regulators. Following exposure to primary antibodies, the membranes were washed with buffer (3×, 5 minutes each at room temperature) followed by incubation with relevant secondary antibodies for 1 hour at 24° C. Finally, the membranes were washed with buffer and developed using the ECL Western blot detection reagent (GE Health Care, Buckinghamshire, UK). The ERG protein expression of the test azophenol compounds were normalized with GAPDH.
In brief, ERG positive VCaP cells in loganthmic growth phase were plated in 10 cm tissue culture dish at a cell density of 2×10^6 cells per dish. The plated cells were treated with 0, 0.2, 0.4, 0.6, 0.8 and 1 μM concentrations of each azophenol compound for a period of 48 hours. Cells from each dish were then processed for Western blot analysis and alterations in the expression of ERG protein were monitored. Both ERG and GAPDH protein band were quantified from each concentration using Image J (NIH) and ERG band density was normalized with corresponding GAPDH protein control. Relative density of ERG in each concentration was calculated and with Graphpad Prism 6 software, the IC50 of each compound was calculated.

[2] = tested on: normal primary endothelial cells; settings: PCT US2015/020172; cited from earlier work
ERG protein [3] = biological target: T2, ERG protein (Homo sapiens, UniProt P11308); settings: PCT US2015/020172; cited from earlier work
T2 sequence (P11308 1-479): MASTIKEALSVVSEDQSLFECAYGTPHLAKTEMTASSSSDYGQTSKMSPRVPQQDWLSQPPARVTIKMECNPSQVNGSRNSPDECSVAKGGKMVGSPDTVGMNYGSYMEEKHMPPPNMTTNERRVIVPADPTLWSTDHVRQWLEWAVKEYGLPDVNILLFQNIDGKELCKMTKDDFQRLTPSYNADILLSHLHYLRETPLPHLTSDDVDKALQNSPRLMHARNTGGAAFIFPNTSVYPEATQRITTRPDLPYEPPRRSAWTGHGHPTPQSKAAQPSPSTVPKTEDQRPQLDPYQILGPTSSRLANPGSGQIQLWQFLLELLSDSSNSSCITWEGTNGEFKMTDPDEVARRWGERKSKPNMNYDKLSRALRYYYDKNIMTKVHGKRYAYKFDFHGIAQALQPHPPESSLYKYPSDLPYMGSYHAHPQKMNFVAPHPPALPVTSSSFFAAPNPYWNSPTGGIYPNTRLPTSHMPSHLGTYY

[4] = 0.2, 0.4, 0.6, 0.8 and 1 μM, FIG. 19-22, 24

For Oc1ccc(N=Nc2ccccn2)c(O)c1 [Compound 5], the “inhibition of VCaP cell growth” value (VCaP cells; [4]) was “inhibition”, the “inhibition of VCaP cell growth” value (VCaP cells; 0.3, 0.6, 1.0, 3.0 and 10.0 μM, FIG. 25-30) was “inhibition” and the pIC50 (VCaP cells) was 6.25. The pIC50 (ERG protein [1]) was 6.27.
In the case of CN(C)c1ccc(N=Nc2ccccn2)c(O)c1 [Compound 6], the “inhibition of VCaP cell growth” value (VCaP cells; 0.02, 0.05, 0.10, 0.20 and 0.40 μM, FIG. 23) was “inhibition”, the “inhibition of VCaP cell growth” value (VCaP cells; [4]) was “inhibition” and the pIC50 (VCaP cells) was 7.13. It also gave a pIC50 (ERG protein [1]) of 6.56.
In the case of CN(C)c1ccc(N=Nc2ccc(Br)cn2)c(O)c1 [Compound 7], the “inhibition of VCaP cell growth” value (VCaP cells; [4]) was “inhibition”, the pIC50 (VCaP cells) was 6.20 and the pIC50 (ERG protein [1]) was 6.25.
In the case of Oc1ccc2ccccc2c1N=Nc1nccs1 [ERGi-USU], the “effect on normal primary endothelial cells that endogenously express ERG” value [2] is listed as “minimal effect” and the “inhibition of ERG protein in ERG positive cancer cell lines” value (ERG protein [3]) is listed as “inhibit the ERG protein”.
